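Following 48 hours of exposure in 96-well plates, responses at five concentrations were used to interpolate endpoints linearly. The concentration for 50% growth inhibition is given as GI50.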 Active and inactive are the calls of the source. Cut-off read from the data, not from the text of the source: active = GI50 up to about 1.1 µM and inactive = higher.
Key:
Assay in all cases: growth of human tumour cells (NCI), 48 h
LOX IMVI = test system: LOX IMVI
Malme-3M = test system: Malme-3M
MOLT-4 = test system: MOLT-4
SK-MEL-5 = test system: SK-MEL-5
NCI-H522 = test system: NCI-H522
SW-620 = test system: SW-620
HOP-62 = test system: HOP-62
COLO 205 = test system: COLO 205
SF-295 = test system: SF-295
ACHN = test system: ACHN
EKVX = test system: EKVX
NCI-H460 = test system: NCI-H460
SK-MEL-28 = test system: SK-MEL-28
SK-MEL-2 = test system: SK-MEL-2
786-0 = test system: 786-0
HCT-116 = test system: HCT-116
UACC-257 = test system: UACC-257
OVCAR-5 = test system: OVCAR-5
RPMI-8226 = test system: RPMI-8226

Measured: GI50

CC(=O)Nc1ccc(C(=O)N2N=C(C)/C(=C/c3cccc(O)c3)C2=O)cc1
inactive: LOX IMVI > 100 µM | Malme-3M > 100 µM | MOLT-4 > 100 µM | SK-MEL-5 > 100 µM | NCI-H522 > 100 µM | SW-620 > 100 µM | HOP-62 > 100 µM | COLO 205 > 100 µM | SF-295 > 100 µM | ACHN > 100 µM | EKVX > 100 µM | NCI-H460 > 100 µM | SK-MEL-28 > 100 µM | SK-MEL-2 > 100 µM | 786-0 > 100 µM | HCT-116 > 100 µM | UACC-257 > 100 µM | OVCAR-5 > 100 µM

COc1cc2c3cc1Oc1c(O)c(OC)cc4c1C(Cc1ccc(O)c(c1)Oc1ccc(cc1)CC3N(C)CC2)N(C)CC4 (centres undefined)
inactive: LOX IMVI 3.01 µM | Malme-3M 18.2 µM | MOLT-4 8.34 µM | SK-MEL-5 18.5 µM | NCI-H522 15.1 µM | SW-620 4.44 µM | HOP-62 18.7 µM | RPMI-8226 15.1 µM | COLO 205 19.5 µM | SF-295 16.1 µM | ACHN 19 µM | EKVX 21.9 µM | NCI-H460 15.1 µM | SK-MEL-28 18.3 µM | SK-MEL-2 23.6 µM | 786-0 13.2 µM | HCT-116 6.55 µM | UACC-257 18.6 µM | OVCAR-5 22.7 µM

c1ccc(N2CCN(CCCN3CCc4c([nH]c5ccccc45)C3c3cccnc3)CC2)cc1 (centres undefined)
inactive: LOX IMVI 41.2 µM | Malme-3M > 46.9 µM | MOLT-4 30.4 µM | SK-MEL-5 > 70.3 µM | NCI-H522 86.9 µM | SW-620 > 100 µM | HOP-62 > 100 µM | RPMI-8226 76.2 µM | COLO 205 20.8 µM | SF-295 > 100 µM | ACHN > 92.9 µM | EKVX > 100 µM | NCI-H460 48.3 µM | SK-MEL-28 61.9 µM | SK-MEL-2 > 100 µM | 786-0 33.9 µM | HCT-116 35.2 µM | UACC-257 24.6 µM | OVCAR-5 > 100 µM

O/N=C/c1ncccc1C1OCCO1
inactive: LOX IMVI > 100 µM | Malme-3M > 100 µM | MOLT-4 > 100 µM | SK-MEL-5 > 100 µM | NCI-H522 > 100 µM | SW-620 > 100 µM | HOP-62 > 100 µM | COLO 205 > 100 µM | SF-295 > 100 µM | ACHN > 100 µM | EKVX > 100 µM | NCI-H460 > 100 µM | SK-MEL-28 > 100 µM | SK-MEL-2 > 100 µM | 786-0 > 100 µM | HCT-116 > 100 µM | UACC-257 > 100 µM | OVCAR-5 > 100 µM

CCc1cccc(CC)c1NC1=CC(=O)C(=O)c2ccccc21
inactive: LOX IMVI 9.84 µM | Malme-3M 17.9 µM | MOLT-4 45.7 µM | SK-MEL-5 10 µM | NCI-H522 14.1 µM | SW-620 16.5 µM | HOP-62 19.5 µM | RPMI-8226 40.2 µM | COLO 205 > 100 µM | SF-295 13 µM | ACHN 13.1 µM | EKVX 14.1 µM | NCI-H460 19 µM | SK-MEL-28 15.6 µM | SK-MEL-2 14.6 µM | 786-0 18.9 µM | HCT-116 18.4 µM | UACC-257 15 µM | OVCAR-5 17.1 µM

CN(C)c1ccc(C=C2C(=O)OC(C)(C)OC2=O)cc1Br
inactive: LOX IMVI > 100 µM | Malme-3M > 100 µM | MOLT-4 > 100 µM | SK-MEL-5 > 100 µM | NCI-H522 > 100 µM | SW-620 > 100 µM | HOP-62 > 100 µM | RPMI-8226 > 100 µM | COLO 205 > 100 µM | SF-295 > 100 µM | ACHN > 100 µM | EKVX > 100 µM | NCI-H460 > 100 µM | SK-MEL-28 > 100 µM | SK-MEL-2 > 100 µM | 786-0 > 100 µM | HCT-116 48.9 µM | UACC-257 > 100 µM | OVCAR-5 > 100 µM

CC(C)(C)c1cc(Cc2ccc(S(C)(=O)=O)cc2)c(O)c(C(C)(C)C)c1
inactive: LOX IMVI 14.6 µM | Malme-3M 18.1 µM | MOLT-4 12.3 µM | SK-MEL-5 16.3 µM | NCI-H522 12.1 µM | SW-620 17.1 µM | HOP-62 16.2 µM | RPMI-8226 10.8 µM | SF-295 13.2 µM | ACHN 13.7 µM | EKVX 15.1 µM | NCI-H460 16.8 µM | SK-MEL-28 18.2 µM | SK-MEL-2 16.7 µM | 786-0 16.1 µM | HCT-116 14 µM | UACC-257 17 µM | OVCAR-5 14.4 µM

CCOc1cccc2[s+]snc12
inactive: LOX IMVI 50.1 µM | Malme-3M > 100 µM | MOLT-4 78.2 µM | SK-MEL-5 23.6 µM | NCI-H522 27.8 µM | SW-620 > 100 µM | HOP-62 > 100 µM | COLO 205 > 100 µM | SF-295 > 100 µM | ACHN > 100 µM | EKVX > 100 µM | NCI-H460 > 100 µM | SK-MEL-28 > 100 µM | SK-MEL-2 > 100 µM | 786-0 > 100 µM | HCT-116 > 100 µM | UACC-257 > 100 µM | OVCAR-5 > 100 µM

COC(=O)C1=CC2OC1(C)CCC2=O (centres undefined)
inactive: LOX IMVI > 100 µM | Malme-3M 71.4 µM | MOLT-4 45.9 µM | NCI-H522 48.1 µM | SW-620 74.6 µM | HOP-62 > 100 µM | RPMI-8226 47.6 µM | COLO 205 > 100 µM | SF-295 > 100 µM | ACHN > 100 µM | EKVX > 100 µM | NCI-H460 > 100 µM | SK-MEL-28 > 100 µM | SK-MEL-2 > 100 µM | 786-0 > 100 µM | HCT-116 85.3 µM | UACC-257 > 100 µM | OVCAR-5 > 100 µM

S=P1(Oc2ccccc2)NNP2(=NP(N3CC3)(N3CC3)=NP(N3CC3)(N3CC3)=N2)NN1 (centres undefined)
inactive: LOX IMVI > 100 µM | Malme-3M > 100 µM | MOLT-4 19.6 µM | SK-MEL-5 > 100 µM | NCI-H522 > 100 µM | SW-620 > 100 µM | HOP-62 49.4 µM | RPMI-8226 > 100 µM | COLO 205 > 100 µM | SF-295 > 10 µM | ACHN > 100 µM | EKVX > 100 µM | NCI-H460 37.6 µM | SK-MEL-28 > 100 µM | SK-MEL-2 > 100 µM | 786-0 > 100 µM | HCT-116 > 100 µM | UACC-257 > 100 µM | OVCAR-5 > 100 µM

CC(C)(C1=NC(C(C)(C)C)CO1)C1=N[C@@H](C(C)(C)C)CO1 (some centres undefined)
inactive: LOX IMVI > 100 µM | Malme-3M > 100 µM | MOLT-4 > 100 µM | SK-MEL-5 > 100 µM | NCI-H522 > 100 µM | SW-620 > 100 µM | HOP-62 > 100 µM | RPMI-8226 > 100 µM | COLO 205 > 100 µM | SF-295 > 100 µM | ACHN > 100 µM | EKVX > 100 µM | NCI-H460 > 100 µM | SK-MEL-28 > 100 µM | SK-MEL-2 > 100 µM | 786-0 > 100 µM | HCT-116 > 100 µM | UACC-257 > 100 µM | OVCAR-5 > 100 µM
